# “Also recorded” adds a separate entry of the source.
# System: 3×Tg-AD mice
# Assay: Sorting Activity Test (SAT), bedding sorting score, tricyclic antidepressants
# Format: in vivo, mouse
# Details: for mean sorting score over the course of the study: 6 cages x 7 weeks; for mean sorting score over the course of the study / mean sorting score: score 0-4; for mean sorting score: day 7 after bedding change, 6 cages, dosed once daily Mon-Fri
# From the text: The 3×Tg-AD mice developed by LaFerla et al., at the University of California at Irvine (Neuron 2003b) were used in the study. These mice harbor mutations in three different genes: the β-amyloid precursor protein (APPSweKM→NL), presenilin-1 (PS1M146V) and tau (P301L). […] Intracellular A-beta peptide immunoreactivity has been reported to appear by as early as three months of age and extracellular A-beta deposits in evidence between six and 12 months of age (Oddo et al., 2003a, 2003b). In the cohort of mice used in the present studies, these hallmarks of AD were not observed until 19 months of age by immunohistochemical methods.
# Triple transgenic (3×Tg-AD) mice and corresponding non-transgenic control mice were weaned and group housed four (4) mice per cage in large static microisolator caging composed of a tinted polycarbonate cage, stainless steel lid, and polycarbonate filtered top at Ace Animals, Inc. Mice were fed 5% Fat Purina Autoclavable Breeder Diet (Item #RHI5R24CGP) and provided reverse osmosis chlorinated water ad libitum within a barrier environment in an environmentally controlled facility (22° C., 40-60% relative humidity) with a 12:12-hour light: dark cycle. Health status reports certify that all animals were free of known viral, bacterial, and parasitic pathogens.
# The unique factor within this colony was the use of a combination corncob and papered bedding (AlphaCobb® cat #ALPHA4B, Animal Specialties and Provisions, Quakertown, Pa.). The mice were 8 weeks of age at the start of the study.
# Mice were housed 2 per cage, 6 cages per group: Non-transgenic control, untreated, 3×Tg-AD, untreated, 3×Tg-AD, Desipramine, 30 mg/kg, and 3×Tg-AD, Imipramine. All mice were approximately two months of age at the start of the study. Mice were dosed once daily, Monday through Friday with test article. Cages were photographed weekly on Day 7, and cage bedding was changed once per week after photographs were taken.
# In order to quantify the sorting behavior of the mice in this study, a scoring system was devised. Before the start of the initial study the mice were observed. It was evident that the sorting behavior was not an “all or nothing” phenomenon, but rather existed in degrees. After observing the cages for some time, scoring criteria were established.
# In these cages, the two types of bedding were equally mixed throughout the cage. There was no area where one bedding type was more concentrated.
# In these cages, a small area of white bedding was seen, usually piled in a corner. The two types of bedding were equally mixed throughout the rest of the cage.
# A score of 2 was given to cages when the white area of bedding was more pronounced, yet the bedding throughout the rest of the cage was still mixed.
# A score of 3 was given to cages when the white area was very clearly defined, and very little white bedding was left mixed with the Alpha Cobb.
# A score of 4 was given to cages when the two types of bedding were almost completely separated from each other.
# The degree of sorting at the end of each 7 day period (before the cages were changed) was scored using this system.
# Using the scoring system devised and making daily observations of the cages, the behavior patterns of the non-transgenic control mice could be clearly distinguished from the 3×Tg-AD mice within a matter of a couple days, but was most prominent after Day 3. At Day 7 before each bedding change, the bedding of each cage was digitally photographed and scored. Table 1 provides the mean score and standard deviation (SD) for each group of mice for each week observed.
# Data was analyzed using GraphPad Prism software with ANOVA one-way analysis of variance followed by Dunnett's multiple comparison test. All groups (6 cages×7 weeks) were compared to untreated 3×TgAD group. Significance was defined as p<0.05.
SMILES,mean sorting score over the course of the study,"sorting behavior, in words (treated 3×Tg-AD mice compared to untreated Tg mice)",mean sorting score (week 1),mean sorting score (week 2),mean sorting score (week 3),mean sorting score (week 4),mean sorting score (week 5),mean sorting score (week 6),mean sorting score (week 7)
"CNCCCN1c2ccccc2CCc2ccccc21 [DESIPRAMINE, Desipramine]",0.67,regained some of the behavior; also recorded: greater effect than imipramine,0.00,0.50,1.17,0.83,0.83,0.50,0.83
"CN(C)CCCN1c2ccccc2CCc2ccccc21 [IMIPRAMINE, Imipramine]",0.31,–,0.00,0.67,0.17,0.33,0.33,0.33,0.33

# From patent publication US8933295B2, “Identifying agents to treat alzheimer's disease-related decreased sorting behavior by administration to a triple transgenic mouse expressing mutant forms of APP, presenilin or tau” (Janssen Biotech, Inc., priority 2008, dated 2015)
